According to patent US20240300932A1, “N-PHENYLIMINE DERIVATIVE AND PREPARATION METHOD AND USE THEREOF” (Guizhou University, priority 2023, published 2024):

Tests used:
Experiment in all cases: Post-emergence herbicidal activity test (stem and leaf spray, pot culture)
Type in all cases: in vivo
Settings in all cases: 3 weeks after spraying
Portulaca oleracea = test system: Portulaca oleracea
Summary of the method: (§1)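 Pot-grown weeds in loam (pH 7, 1.63% organic matter) were spray-treated on stems and leaves at the 2- to 3-leaf stage with compound in acetone/Tween 80 plus 1.5 liters/ha methyl oleate at 10, 5 or 2.5 g/mu. Fresh-weight growth control was scored 3 weeks later as grades 0–5.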

Amaranthus retroflexus = test system: Amaranthus retroflexus
Summary of the method: as §1

Echinochloa crusgalli = test system: Echinochloa crusgalli
Summary of the method: as §1

Setaria viridis = test system: Setaria viridis
Summary of the method: as §1

Abutilon theophrasti = test system: Abutilon theophrasti
Summary of the method: as §1

Trifoliumre pensL. = test system: Trifoliumre pensL.
Summary of the method: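 Pot-grown weeds in loam (pH 7), greenhouse at 20–30 °C, sprayed once post-emergence at the 2–3-leaf stage. Compound in acetone with Tween 80 plus methyl oleate oil (1.5 L/ha), applied at 10, 5 and 2.5 g/mu by spray tower. Effect scored 3 weeks after spraying, averaged over three repeats.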

SMILES | Post-emergence herbicidal activity, P. oleracea (grade) (Portulaca oleracea; dosage 2.5 g/mu) | Post-emergence herbicidal activity, P. oleracea (grade) (Portulaca oleracea; dosage 5 g/mu) | Post-emergence herbicidal activity, P. oleracea (grade) (Portulaca oleracea; dosage 10 g/mu) | Post-emergence herbicidal activity, A. retroflexus (grade) (Amaranthus retroflexus; dosage 2.5 g/mu) | Post-emergence herbicidal activity, A. retroflexus (grade) (Amaranthus retroflexus; dosage 5 g/mu) | Post-emergence herbicidal activity, A. retroflexus (grade) (Amaranthus retroflexus; dosage 10 g/mu) | Post-emergence herbicidal activity, E. crusgalli (grade) (Echinochloa crusgalli; dosage 2.5 g/mu) | Post-emergence herbicidal activity, E. crusgalli (grade) (Echinochloa crusgalli; dosage 5 g/mu) | Post-emergence herbicidal activity, E. crusgalli (grade) (Echinochloa crusgalli; dosage 10 g/mu) | Post-emergence herbicidal activity, S. viridis (grade) (Setaria viridis; dosage 2.5 g/mu) | Post-emergence herbicidal activity, S. viridis (grade) (Setaria viridis; dosage 5 g/mu) | Post-emergence herbicidal activity, S. viridis (grade) (Setaria viridis; dosage 10 g/mu) | Post-emergence herbicidal activity, A. theophrasti (grade) (Abutilon theophrasti; dosage 2.5 g/mu) | Post-emergence herbicidal activity, A. theophrasti (grade) (Abutilon theophrasti; dosage 5 g/mu) | Post-emergence herbicidal activity, A. theophrasti (grade) (Abutilon theophrasti; dosage 10 g/mu) | Post-emergence herbicidal activity, Trifoliumre pensL. (grade) (Trifoliumre pensL.; dosage 2.5 g/mu) | Post-emergence herbicidal activity, Trifoliumre pensL. (grade) (Trifoliumre pensL.; dosage 5 g/mu) | Post-emergence herbicidal activity, Trifoliumre pensL. (grade) (Trifoliumre pensL.; dosage 10 g/mu)
O=C1C2=C(CCCC2)C(=O)N1c1cc(OCc2nnc(-c3ccccc3[N+](=O)[O-])o2)c(Cl)cc1F [Compound B8] | 5 (Grade 5: the growth control rate is greater than or equal to 85%) | 5 (Grade 5: the growth control rate is greater than or equal to 85%) | 5 (Grade 5: the growth control rate is greater than or equal to 85%) | 5 (Grade 5: the growth control rate is greater than or equal to 85%) | 5 (Grade 5: the growth control rate is greater than or equal to 85%) | 5 (Grade 5: the growth control rate is greater than or equal to 85%) | 1 (Grade 1: the growth control rate is greater than or equal to 5% and less than 20%) | 2 (Grade 2: the growth control rate is greater than or equal to 20% and less than 40%) | 3 (Grade 3: the growth control rate is greater than or equal to 40% and less than 60%) | 2 (Grade 2: the growth control rate is greater than or equal to 20% and less than 40%) | 3 (Grade 3: the growth control rate is greater than or equal to 40% and less than 60%) | 4 (Grade 4: the growth control rate is greater than or equal to 60% and less than 85%) | 5 (Grade 5: the growth control rate is greater than or equal to 85%) | 5 (Grade 5: the growth control rate is greater than or equal to 85%) | 5 (Grade 5: the growth control rate is greater than or equal to 85%) | 5 (Grade 5: the growth control rate is greater than or equal to 85%) | 5 (Grade 5: the growth control rate is greater than or equal to 85%) | 5 (Grade 5: the growth control rate is greater than or equal to 85%)
O=C1C2=C(CCCC2)C(=O)N1c1cc(OCc2nnc(-c3cccc(Br)c3)o2)c(Cl)cc1F [Compound B10] | 5 (Grade 5: the growth control rate is greater than or equal to 85%) | 5 (Grade 5: the growth control rate is greater than or equal to 85%) | 5 (Grade 5: the growth control rate is greater than or equal to 85%) | 4 (Grade 4: the growth control rate is greater than or equal to 60% and less than 85%) | 5 (Grade 5: the growth control rate is greater than or equal to 85%) | 5 (Grade 5: the growth control rate is greater than or equal to 85%) | 1 (Grade 1: the growth control rate is greater than or equal to 5% and less than 20%) | 2 (Grade 2: the growth control rate is greater than or equal to 20% and less than 40%) | 3 (Grade 3: the growth control rate is greater than or equal to 40% and less than 60%) | 2 (Grade 2: the growth control rate is greater than or equal to 20% and less than 40%) | 3 (Grade 3: the growth control rate is greater than or equal to 40% and less than 60%) | 4 (Grade 4: the growth control rate is greater than or equal to 60% and less than 85%) | 4 (Grade 4: the growth control rate is greater than or equal to 60% and less than 85%) | 5 (Grade 5: the growth control rate is greater than or equal to 85%) | 5 (Grade 5: the growth control rate is greater than or equal to 85%) | 5 (Grade 5: the growth control rate is greater than or equal to 85%) | 5 (Grade 5: the growth control rate is greater than or equal to 85%) | 5 (Grade 5: the growth control rate is greater than or equal to 85%)
O=C1C2=C(CCCC2)C(=O)N1c1cc(OCc2nnc(-c3cccc(I)c3)o2)c(Cl)cc1F [Compound B11] | 5 (Grade 5: the growth control rate is greater than or equal to 85%) | 5 (Grade 5: the growth control rate is greater than or equal to 85%) | 5 (Grade 5: the growth control rate is greater than or equal to 85%) | 4 (Grade 4: the growth control rate is greater than or equal to 60% and less than 85%) | 5 (Grade 5: the growth control rate is greater than or equal to 85%) | 5 (Grade 5: the growth control rate is greater than or equal to 85%) | 1 (Grade 1: the growth control rate is greater than or equal to 5% and less than 20%) | 2 (Grade 2: the growth control rate is greater than or equal to 20% and less than 40%) | 3 (Grade 3: the growth control rate is greater than or equal to 40% and less than 60%) | 2 (Grade 2: the growth control rate is greater than or equal to 20% and less than 40%) | 3 (Grade 3: the growth control rate is greater than or equal to 40% and less than 60%) | 4 (Grade 4: the growth control rate is greater than or equal to 60% and less than 85%) | 4 (Grade 4: the growth control rate is greater than or equal to 60% and less than 85%) | 5 (Grade 5: the growth control rate is greater than or equal to 85%) | 5 (Grade 5: the growth control rate is greater than or equal to 85%) | 5 (Grade 5: the growth control rate is greater than or equal to 85%) | 5 (Grade 5: the growth control rate is greater than or equal to 85%) | 5 (Grade 5: the growth control rate is greater than or equal to 85%)
O=C1C2=C(CCCC2)C(=O)N1c1cc(OCc2nnc(-c3cccc([N+](=O)[O-])c3)o2)c(Cl)cc1F [Compound B12] | 5 (Grade 5: the growth control rate is greater than or equal to 85%) | 5 (Grade 5: the growth control rate is greater than or equal to 85%) | 5 (Grade 5: the growth control rate is greater than or equal to 85%) | 5 (Grade 5: the growth control rate is greater than or equal to 85%) | 5 (Grade 5: the growth control rate is greater than or equal to 85%) | 5 (Grade 5: the growth control rate is greater than or equal to 85%) | 1 (Grade 1: the growth control rate is greater than or equal to 5% and less than 20%) | 2 (Grade 2: the growth control rate is greater than or equal to 20% and less than 40%) | 3 (Grade 3: the growth control rate is greater than or equal to 40% and less than 60%) | 2 (Grade 2: the growth control rate is greater than or equal to 20% and less than 40%) | 3 (Grade 3: the growth control rate is greater than or equal to 40% and less than 60%) | 4 (Grade 4: the growth control rate is greater than or equal to 60% and less than 85%) | 5 (Grade 5: the growth control rate is greater than or equal to 85%) | 5 (Grade 5: the growth control rate is greater than or equal to 85%) | 5 (Grade 5: the growth control rate is greater than or equal to 85%) | 5 (Grade 5: the growth control rate is greater than or equal to 85%) | 5 (Grade 5: the growth control rate is greater than or equal to 85%) | 5 (Grade 5: the growth control rate is greater than or equal to 85%)
